According to ChEMBL document CHEMBL1201862, “PubChem BioAssay data set” (2004):
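96-well plates; 48 h exposure; 5 concentrations. Endpoints by linear interpolation between flanking doses. Not reached: highest tested concentration assigned. At the GI50, growth is halved.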 Calls of active or inactive are those of the source. Cut-off read from the data, not from the text of the source: active = GI50 up to about 1.1 µM and inactive = higher.

Columns and labels:
Experiment in all cases: NCI tumour cell line growth inhibition, 48 h
786-0 = test system: 786-0
A549 = test system: A549
ACHN = test system: ACHN
BT-549 = test system: BT-549
CAKI-1 = test system: CAKI-1
CCRF-CEM = test system: CCRF-CEM
COLO 205 = test system: COLO 205
DU-145 = test system: DU-145
EKVX = test system: EKVX
HCT-116 = test system: HCT-116
HCT-15 = test system: HCT-15
HL-60 = test system: HL-60
HOP-62 = test system: HOP-62
HOP-92 = test system: HOP-92
HT-29 = test system: HT-29
Hs-578T = test system: Hs-578T
IGROV-1 = test system: IGROV-1
K562 = test system: K562
KM12 = test system: KM12
LOX IMVI = test system: LOX IMVI
M14 = test system: M14
MCF7 = test system: MCF7
MDA-MB-435 = test system: MDA-MB-435
MDA-N = test system: MDA-N
MOLT-4 = test system: MOLT-4
Malme-3M = test system: Malme-3M
NCI-H226 = test system: NCI-H226
NCI-H23 = test system: NCI-H23
NCI-H460 = test system: NCI-H460
NCI-H522 = test system: NCI-H522
NCI/ADR-RES = test system: NCI/ADR-RES
OVCAR-3 = test system: OVCAR-3
OVCAR-4 = test system: OVCAR-4
OVCAR-5 = test system: OVCAR-5
OVCAR-8 = test system: OVCAR-8
PC-3 = test system: PC-3
RPMI-8226 = test system: RPMI-8226
SF-268 = test system: SF-268
SF-295 = test system: SF-295
SK-MEL-28 = test system: SK-MEL-28
SK-MEL-2 = test system: SK-MEL-2
SK-MEL-5 = test system: SK-MEL-5
SK-OV-3 = test system: SK-OV-3
SN12C = test system: SN12C
SNB-19 = test system: SNB-19
SNB-75 = test system: SNB-75
SR = test system: SR
SW-620 = test system: SW-620
T47D = test system: T47D
TK-10 = test system: TK-10
U-251 = test system: U-251
UACC-257 = test system: UACC-257
UACC-62 = test system: UACC-62
UO-31 = test system: UO-31
HCC 2998 = test system: HCC 2998
MDA-MB-231 = test system: MDA-MB-231
RXF 393 = test system: RXF 393
SF-539 = test system: SF-539

Question: Which results are given for `CC12CCC(C/C1=N\NC(N)=O)C2(C)C` (stereo not drawn)?
Answer: GI50 (786-0): > 100 µM (inactive); GI50 (A549): > 100 µM (inactive); GI50 (ACHN): > 100 µM (inactive); GI50 (BT-549): > 100 µM (inactive); GI50 (CAKI-1): > 100 µM (inactive); GI50 (CCRF-CEM): > 100 µM (inactive); GI50 (COLO 205): > 100 µM (inactive); GI50 (DU-145): > 100 µM (inactive); GI50 (EKVX): > 100 µM (inactive); GI50 (HCT-116): > 100 µM (inactive); GI50 (HCT-15): > 100 µM; GI50 (HL-60): > 100 µM (inactive); GI50 (HOP-62): > 100 µM (inactive); GI50 (HOP-92): > 100 µM (inactive); GI50 (HT-29): > 100 µM (inactive); GI50 (Hs-578T): > 100 µM (inactive); GI50 (IGROV-1): > 100 µM (inactive); GI50 (K562): > 100 µM (inactive); GI50 (KM12): > 100 µM (inactive); GI50 (LOX IMVI): > 100 µM (inactive); GI50 (M14): > 100 µM (inactive); GI50 (MCF7): > 100 µM (inactive); GI50 (MDA-MB-435): > 100 µM (inactive); GI50 (MDA-N): > 100 µM (inactive); GI50 (MOLT-4): > 100 µM (inactive); GI50 (Malme-3M): > 100 µM (inactive); GI50 (NCI-H226): > 100 µM (inactive); GI50 (NCI-H23): > 100 µM (inactive); GI50 (NCI-H460): > 100 µM (inactive); GI50 (NCI-H522): > 100 µM (inactive); GI50 (NCI/ADR-RES): > 100 µM (inactive); GI50 (OVCAR-3): > 100 µM (inactive); GI50 (OVCAR-4): > 100 µM (inactive); GI50 (OVCAR-5): > 100 µM (inactive); GI50 (OVCAR-8): > 100 µM (inactive); GI50 (PC-3): > 100 µM (inactive); GI50 (RPMI-8226): > 100 µM (inactive); GI50 (SF-268): > 100 µM (inactive); GI50 (SF-295): > 100 µM (inactive); GI50 (SK-MEL-28): > 100 µM (inactive); GI50 (SK-MEL-2): > 100 µM (inactive); GI50 (SK-MEL-5): > 100 µM (inactive); GI50 (SK-OV-3): > 100 µM (inactive); GI50 (SN12C): > 100 µM (inactive); GI50 (SNB-19): > 100 µM (inactive); GI50 (SNB-75): > 100 µM (inactive); GI50 (SR): > 100 µM (inactive); GI50 (SW-620): > 100 µM (inactive); GI50 (T47D): > 100 µM (inactive); GI50 (TK-10): > 100 µM (inactive); GI50 (U-251): > 100 µM (inactive); GI50 (UACC-257): > 100 µM (inactive); GI50 (UACC-62): > 100 µM (inactive); GI50 (UO-31): > 100 µM (inactive)

Question: For `CC1(C)OC(=O)C(Cc2ccccc2)(Cc2ccccc2)C(=O)O1`, which GI50 (786-0) is on record?
Answer: > 100 µM (inactive)

Question: What about the GI50 (A549) of the same molecule?
Answer: > 100 µM (inactive)

Question: What about the GI50 (ACHN) of the same molecule?
Answer: > 100 µM (inactive)

Question: And the GI50 (BT-549)?
Answer: > 100 µM (inactive)

Question: What about the GI50 (CAKI-1) of the same molecule?
Answer: > 100 µM (inactive)

Question: What about the GI50 (CCRF-CEM) of the same molecule?
Answer: > 100 µM (inactive)

Question: And the GI50 (COLO 205)?
Answer: > 100 µM (inactive)

Question: And the GI50 (DU-145)?
Answer: > 100 µM (inactive)

Question: What about the GI50 (EKVX) of the same molecule?
Answer: > 100 µM (inactive)

Question: And the GI50 (HCC 2998)?
Answer: > 100 µM (inactive)

Question: What about the GI50 (HCT-116) of the same molecule?
Answer: > 100 µM (inactive)

Question: What about the GI50 (HCT-15) of the same molecule?
Answer: > 100 µM

Question: What about the GI50 (HL-60) of the same molecule?
Answer: > 100 µM (inactive)

Question: What about the GI50 (HOP-62) of the same molecule?
Answer: > 100 µM (inactive)

Question: What about the GI50 (HT-29) of the same molecule?
Answer: > 100 µM (inactive)

Question: What about the GI50 (Hs-578T) of the same molecule?
Answer: > 100 µM (inactive)

Question: And the GI50 (IGROV-1)?
Answer: > 100 µM (inactive)

Question: And the GI50 (K562)?
Answer: > 100 µM (inactive)

Question: What about the GI50 (KM12) of the same molecule?
Answer: > 100 µM (inactive)

Question: What about the GI50 (LOX IMVI) of the same molecule?
Answer: > 100 µM (inactive)

Question: And the GI50 (M14)?
Answer: > 100 µM (inactive)

Question: And the GI50 (MCF7)?
Answer: > 100 µM (inactive)

Question: And the GI50 (MDA-MB-231)?
Answer: > 100 µM (inactive)

Question: And the GI50 (MDA-N)?
Answer: > 100 µM (inactive)

Question: What about the GI50 (MOLT-4) of the same molecule?
Answer: > 100 µM (inactive)

Question: And the GI50 (Malme-3M)?
Answer: > 100 µM (inactive)

Question: And the GI50 (NCI-H226)?
Answer: > 100 µM (inactive)

Question: And the GI50 (NCI-H23)?
Answer: > 100 µM (inactive)

Question: What about the GI50 (NCI-H460) of the same molecule?
Answer: > 100 µM (inactive)

Question: And the GI50 (NCI-H522)?
Answer: > 100 µM (inactive)

Question: What about the GI50 (NCI/ADR-RES) of the same molecule?
Answer: > 100 µM (inactive)

Question: And the GI50 (OVCAR-4)?
Answer: > 100 µM (inactive)

Question: And the GI50 (OVCAR-5)?
Answer: > 100 µM (inactive)

Question: And the GI50 (OVCAR-8)?
Answer: > 100 µM (inactive)

Question: What about the GI50 (PC-3) of the same molecule?
Answer: > 100 µM (inactive)

Question: And the GI50 (RXF 393)?
Answer: 3.58 µM (inactive)

Question: What about the GI50 (SF-268) of the same molecule?
Answer: > 100 µM (inactive)

Question: And the GI50 (SF-295)?
Answer: > 100 µM (inactive)

Question: And the GI50 (SF-539)?
Answer: > 100 µM (inactive)

Question: And the GI50 (SK-MEL-28)?
Answer: > 100 µM (inactive)

Question: What about the GI50 (SK-MEL-2) of the same molecule?
Answer: > 100 µM (inactive)

Question: What about the GI50 (SK-MEL-5) of the same molecule?
Answer: > 100 µM (inactive)

Question: And the GI50 (SK-OV-3)?
Answer: > 100 µM (inactive)

Question: And the GI50 (SN12C)?
Answer: > 100 µM (inactive)

Question: And the GI50 (SNB-19)?
Answer: > 10 µM (inactive)

Question: And the GI50 (SNB-75)?
Answer: > 100 µM (inactive)

Question: And the GI50 (SR)?
Answer: > 100 µM (inactive)

Question: What about the GI50 (SW-620) of the same molecule?
Answer: > 100 µM (inactive)

Question: And the GI50 (T47D)?
Answer: > 100 µM (inactive)

Question: What about the GI50 (TK-10) of the same molecule?
Answer: > 100 µM (inactive)

Question: And the GI50 (U-251)?
Answer: > 100 µM (inactive)

Question: And the GI50 (UACC-257)?
Answer: > 100 µM (inactive)

Question: And the GI50 (UACC-62)?
Answer: > 100 µM (inactive)

Question: And the GI50 (UO-31)?
Answer: > 100 µM (inactive)
